# In patent US20260229370A1, “[…] BENEFIT/RISK ASSESSMENT METHOD SUITABLE FOR THE PHYSIOLOGICAL ACTIVITY OF NATURAL MATRICES-BASED […] OR BENEFICIAL PRODUCTS WITH RESPECT TO THAT OF OTHER PRODUCTS WITH PHARMACOLOGICAL OR NUTRACEUTICAL ACTIVITY BASED ON […] MOLECULES” (Bios-Therapy, Physiological Systems for Health S.p.A., priority 2025, published 2026):
# Legend:
# [1] = In vivo observation of behavioural parameters (risk, side effects) in mouse model; design: species or system mice
# Source text: (§1) The risk (intended as side effects) was estimated through the observation of behavioural parameters (impacting the behaviour itself, the locomotor system, muscle strength and nervous reflexes) and through the potential weight loss of the animal.
# (§2) Data obtained by animal testing, considered in the context of the risk, are behavioural parameters and body weight loss at the end of experimentation.
# The behavioural parameters monitored are listed below: • 1. Loss of Spontaneous activity • 2. Loss of Cleaning • 3. Loss of Curiosity • 4. Loss of Reactivity • 5. Loss of Straightening reflex • 6. Loss of Physical strength • 7. Impairment of Palpebral opening • 8. Palpebral reflex • 9. Tremors • 10. Pallor • 11. Stereotypies • 12. Passivity
# The values of the parameters 1-8 are normalized as: “Not treated animal value” (always equal to 0)+“Treated animal value”.
# The values of the parameters 9-12 are normalized as: “Not treated animal value”−“Treated animal value”.
# (§3) The benefit (intended as therapeutic activity) was instead evaluated by taking into consideration the reduction in size of the tumour mass compared to the untreated tumour. For this purpose, immunocompromised mice bearing xenografted FaDu head and neck squamous carcinoma cells were included in the study once tumours reached a volume of 100 mm^3. Mice received daily intratumoral injections of EpigenAU/11 and intraperitoneal cisplatin on alternating days.
# [2] = In vivo body weight (potential weight loss) at the end of experimentation; design: species or system mice; conditions: mouse
# Description: as §1, §2
# The potential weight loss of the treated animals was also assessed.” Data were processed using the formula: […]
# as §3
# [3] = test system: xenografted FaDu head and neck squamous carcinoma cells; assay: In vivo tumour mass size in mice bearing xenografted FaDu cells (benefit); conditions: daily intratumoral EpigenAU/11, intraperitoneal cisplatin on alternating days; treated day 27; vehicle 1.38
# Description: Data obtained by animal testing, considered in the context of benefit, is the tumour mass size reached at the end of in vivo test for each treatment.
# Data were calculated as “Reduction in the size of tumour mass” by the formula:
# 1−[“Tumour mass size collected from treated animals (day of observation: 27)/Tumour mass size collected from untreated animals (day of observation: 19)]
# as §3
structure (smiles),measurement,setting,value
N.N.[Cl][Pt][Cl] [Cisplatin],"Cleaning (Behaviour), Mean",[1],2.90
same,"Curiosity (Behaviour), Mean",[1],2.60
same,"Pallor (Nervous system), Mean",[1],2.00
same,"Palpebral opening (Nervous system), Mean",[1],2.00
same,"Palpebral reflex (Nervous system), Mean",[1],2.80
same,"Passivity (Behaviour), Mean",[1],1.60
same,"Physical strenght (Muscle), Mean",[1],2.70
same,"Reactivity (Behaviour), Mean",[1],2.20
same,"Spontaneous activity (Behaviour), Mean",[1],2.50
same,"Stereolipies (Locomotor system), Mean",[1],0.00
same,"Straightening reflex (Locomotor system), Mean",[1],2.60
same,"Tremors (Nervous system), Mean",[1],0.80
same,"Body weight (Nutritional and metabolic system), Mean",[2],29.12
same,"Size of tumor masses (Tumor viability), Mean",[3],0.50
